According to patent US7307063B2, “Melanocortin metallopeptides for treatment of sexual dysfunction” (Palatin Technologies, Inc., priority 2001, dated 2007):
“And” between values parts separate entries of the source, which are not always exact repeats. Equal values may be shown once. Non-standard residues stand in square brackets, D forms with d. No end group written: not given here. *: point of attachment. Acetyl(2-naphthyl) = O=C(Cc1ccc2ccccc2c1)*; dDip = N[C@@H](C(=O)O)C(c1ccccc1)c1ccccc1; 1Nal = N[C@@H](Cc1cccc2ccccc12)C(=O)O; dIgl = N[C@@H](C(=O)O)C1Cc2ccccc2C1; Tic = O=C(O)[C@@H]1Cc2ccccc2CN1; aThr = C[C@H](O)[C@H](N)C(=O)O; Ac6c = NC1(C(=O)O)CCCCC1; Nle = CCCC[C@H](N)C(=O)O; Ac5c = NC1(C(=O)O)CCCC1; Ahp = NCCCCCCC(=O)O

Assays:
hMC2-R = molecular target: T1, hMC2-R (Homo sapiens, UniProt P41968); assay: Competitive binding assay of additional compounds, Table 6 hMC2-R; conditions: 1 μM, mean of triplicate
T1 construct: expressed in transfected cells; host or cells: HEK-293
T1 sequence (P41968 whole entry): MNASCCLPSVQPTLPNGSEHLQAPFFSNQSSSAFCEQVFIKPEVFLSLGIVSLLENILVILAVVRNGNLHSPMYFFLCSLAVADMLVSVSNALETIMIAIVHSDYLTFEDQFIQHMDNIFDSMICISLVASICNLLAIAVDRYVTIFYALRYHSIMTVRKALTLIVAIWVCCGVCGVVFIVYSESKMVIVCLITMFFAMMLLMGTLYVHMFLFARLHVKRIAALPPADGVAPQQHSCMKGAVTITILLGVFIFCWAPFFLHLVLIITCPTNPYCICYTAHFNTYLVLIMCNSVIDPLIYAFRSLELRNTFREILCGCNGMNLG
Method: [The source words this procedure for another target and reports this target under the same test.] (§1) Rhenium-complexed metallopeptides of the formulas given in Table 1 were prepared, with the metallopeptides complexed with rhenium using the rhenium transfer agent ReOCl3(PPh3)2 in the presence of 1,8-Diazabicyclo[5,4,0] undec-7-ene as a base, as disclosed in International Application PCT/US00/16396, filed Jun. 14, 2000, Melanocortin Metallopeptide Constructs, Combinatorial Libraries and Applications, incorporated by reference herein. Affinities of compounds were measured using membranes from HEK-293 cells containing cloned human melanocortin receptor subtypes 3, 4 and 5. MC1-R membranes were isolated from B16—F10 mouse melanoma cells. The assay tube also contained a chosen concentration of the test peptide of this invention, complexed to a rhenium metal ion as indicated, for determining its efficacy in inhibiting the binding of ^125I-NDP-α-MSH to its receptor. Non-specific binding was measured by complete inhibition of binding of ^125I-NDP-α-MSH in the assay with the presence of 1 μM α-MSH. 100% specific binding was defined as the difference in radioactivity (cpm) bound to cell membranes in the absence and presence of 1 μM α-MSH. The cpm obtained in presence of test compounds were normalized with respect to 100% specific binding to determine the percent inhibition of ^125I-NDP-α-MSH binding.
(§2) Peptide sequences set forth in Table 6 were prepared using conventional synthetic means. The resulting sequences were rhenium-complexed to form metallopeptides, with the metallopeptides complexed with rhenium using the rhenium transfer agent ReOCl3(PPh3)2 in the presence of 1,8-Diazabicyclo[5,4,0] undec-7-ene as a base. Percent inhibition was determined as in Example 1 using the Re-complexed metallopeptides, using the same methods as described therein. All measures are means of triplicate determinations.

MC4-R = molecular target: T2, MC4-R (Homo sapiens, UniProt P32245); assay: Competitive binding assay: inhibition of 125I-NDP-α-MSH binding to HEK-293 membranes with cloned human receptor subtype 4; conditions: Table 6; 1 μM; mean of triplicate
T2 construct: expressed in transfected cells; host or cells: HEK-293
T2 sequence (P32245 whole entry): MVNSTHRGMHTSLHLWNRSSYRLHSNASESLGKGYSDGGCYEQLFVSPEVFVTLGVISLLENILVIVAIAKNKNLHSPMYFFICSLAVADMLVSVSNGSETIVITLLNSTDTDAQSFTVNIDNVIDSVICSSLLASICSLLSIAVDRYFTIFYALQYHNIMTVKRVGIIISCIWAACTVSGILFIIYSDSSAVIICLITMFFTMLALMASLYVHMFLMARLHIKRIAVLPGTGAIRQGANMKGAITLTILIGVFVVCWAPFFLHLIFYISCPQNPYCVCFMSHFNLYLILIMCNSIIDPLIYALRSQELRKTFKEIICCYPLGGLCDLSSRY
In short: (§3)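 Membranes were incubated with 125I-NDP-α-MSH and a chosen concentration of Re-complexed peptide. Bound radioactivity was then measured, with 1 μM α-MSH defining complete inhibition. Finally, cpm were normalized against specific binding to yield percent inhibition.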

MC1-R = molecular target: T3, MC1-R (Mus musculus, UniProt Q01727); assay: Competitive binding assay: inhibition of 125I-NDP-α-MSH binding to membranes from B16-F10 mouse melanoma cells; conditions: Table 6; 1 μM; mean of triplicate
T3 construct: MC1-R membranes were isolated from B16—F10 mouse melanoma cells; endogenous in cells; host or cells: B16-F10 mouse melanoma cells
T3 sequence (Q01727 whole entry): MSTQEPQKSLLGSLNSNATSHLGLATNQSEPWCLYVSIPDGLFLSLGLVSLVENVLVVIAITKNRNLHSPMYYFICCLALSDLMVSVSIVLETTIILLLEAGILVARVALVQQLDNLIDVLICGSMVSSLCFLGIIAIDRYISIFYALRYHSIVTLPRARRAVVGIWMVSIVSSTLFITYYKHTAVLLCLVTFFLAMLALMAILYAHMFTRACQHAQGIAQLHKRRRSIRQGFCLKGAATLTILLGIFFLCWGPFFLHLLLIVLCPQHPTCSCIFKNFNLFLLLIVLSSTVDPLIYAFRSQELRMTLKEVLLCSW
In short: as §3

hMC5-R = molecular target: T4, hMC5-R (Homo sapiens, UniProt P33032); assay: Competitive binding assay: inhibition of 125I-NDP-α-MSH binding to HEK-293 membranes with cloned human receptor subtype 5; conditions: Table 6; 1 μM; mean of triplicate
T4 construct: expressed in transfected cells; host or cells: HEK-293
T4 sequence (P33032 whole entry): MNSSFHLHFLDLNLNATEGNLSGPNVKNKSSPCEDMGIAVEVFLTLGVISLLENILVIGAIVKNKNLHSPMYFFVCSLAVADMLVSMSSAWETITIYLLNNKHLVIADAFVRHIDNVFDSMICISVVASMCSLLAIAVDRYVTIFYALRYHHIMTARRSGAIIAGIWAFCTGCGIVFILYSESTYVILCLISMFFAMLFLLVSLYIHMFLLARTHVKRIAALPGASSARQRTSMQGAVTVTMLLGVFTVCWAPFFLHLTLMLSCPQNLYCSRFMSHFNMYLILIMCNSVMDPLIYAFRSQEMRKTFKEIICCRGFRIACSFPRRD
Method: as §1, §2

Substance | % Inhibition of Binding hMC2-R (hMC2-R) | % Inhibition of Binding hMC4-R (MC4-R) | % Inhibition of Binding MC1-R (MC1-R) | % Inhibition of Binding hMC5-R (hMC5-R)
1-amino-1-cyclohexane carboxyl-D-Phe-Arg-Cys-Trp-NH2 ([Ac6c][dF]RCW-NH2; N-terminus assumed; SMILES N=C(N)NCCC[C@H](NC(=O)[C@@H](Cc1ccccc1)NC(=O)C1(N)CCCCC1)C(=O)N[C@@H](CS)C(=O)N[C@@H](Cc1c[nH]c2ccccc12)C(N)=O) | 0% | 14% | 92% | 65%
3′-Br Phenyl acetyl-Lys-Ala-D-Phe(4′-CF3)-Cys-Trp-NH2 | 77% | 96% and 74% | 4% and 10% | 83%
3′-Br Phenyl acetyl-Arg-Arg-D-Bip-Cys-Trp-NH2 | 83% | 77% | 91% | 99%
Ac-[Nle]AL[dF]RCW-NH2 | 4% | 18% | 81% | 87%
1-amino-1-cyclopentane carboxyl-D-Phe-Arg-Trp-Cys-NH2 ([Ac5c][dF]RWC-NH2; N-terminus assumed; SMILES N=C(N)NCCC[C@H](NC(=O)[C@@H](Cc1ccccc1)NC(=O)C1(N)CCCC1)C(=O)N[C@@H](Cc1c[nH]c2ccccc12)C(=O)N[C@@H](CS)C(N)=O) | 7% | 0% | 23% | 14%
3′-Bromo phenyl acetyl-Arg-Thr-D-Phe(4′-Cl)-Cys-NH2 | 6% | 1% | 8% | 2%
Amc-D-Phe-Arg-Cys-Trp-NH2 | 0% | 4% | 7% | 8%
[dP][dF]RWC-NH2 | 0% | 18% | 1% | 35%
Ac-Ala-Ala-Ala-D-Phe-Arg-Cys-Trp-NH2 (Ac-AAA[dF]RCW-NH2; not fully specified; printed as Ac-Ala-Ala-Ala-D-Phe-Arg-Cys-Trp-NH2) | 0% | 3% | 5% | 0%
Tic-D-Phe(4′-Cl)-Arg-Trp-Cys-NH2 | 71% | 88% | 45% | 90%
Ac-[Nle]H[dF]RCW-NH2 | 0% | 2% | 77% | 28%
3′-Bromo phenyl acetyl-Arg-Ala-D-Phe(4′-Cl)-Cys-Trp-NH2 | 35% | 80% | 8% | 86%
Tic-D-Phe(3′-Cl)-Arg-Trp-Cys-NH2 | 41% | 62% | 18% | 76%
Hept-Ser(Bzl)-D-Phe(4′-Cl)-Arg-Trp-Cys-NH2 | 85% | 88% | 85% | 100%
3′-Br Phenyl acetyl-Arg-Arg-D-Phe(3′-Cl)-Cys-Nal 2′-NH2 | 68% | 75% | 65% | 89%
3′-Br Phenyl acetyl-Arg-Arg-D-Phe(4′-CF3)-Cys-Trp-NH2 | 94% | 89% | 72% | 99%
D-Igl-D-Nal 2′-Arg-Cys-NH2 | 1% | 8% | 0% | 41%
Nal 1′-D-Phe-Arg-Cys-Trp-NH2 ([1Nal][dF]RCW-NH2; also: metal complex) | 6% | 12% | 0% | 45%

Substance | % Inhibition of Binding hMC2-R (hMC2-R) | % Inhibition of Binding hMC4-R (MC4-R) | % Inhibition of Binding MC1-R (MC1-R) | % Inhibition of Binding hMC5-R (hMC5-R)
Ac-[Nle]AT[dF]RCW-NH2 | 8% | 11% | 30% | 7%
Tic-D-Nal-2′-Arg-Trp-Cys-NH2 | 52% | 92% | 10% | 83%
3′-Bromo phenyl acetyl-Arg-Ala-D-Phe(4′-Cl)-Cys-NH2 | 47% | 59% | 90% | 15%
Ac-Nle-Ala-His-D-Phe-Arg-Nal 2′-Cys-NH2 | 40% | 89% | 99% | 83%
D-Nal 2′-D-Phe-Arg-Cys-Trp-NH2 | 7% | 0% | 50% | 52%
allo-Thr-D-Phe-Arg-Cys-Trp-NH2 ([aThr][dF]RCW-NH2; also: metal complex) | 5% | 0% | 66% | 31%
3′-Br-Phenylacetyl-His-D-Phe(4′-Cl)-Trp-Cys-NH2 | 15% | 3% | 41% | 40%
Naphthlyl-2-acetyl-D-Phe-Arg-Cys-Trp-NH2 ({Acetyl(2-naphthyl)}-[dF]RCW-NH2; also: metal complex) | 0% | 0% | 7% | 56%
Ac-[Nle]AH[dF]R[dH]C-NH2 | 0% | 16% | 52% | 0%
NH2-(CH2)6-CO-Ser(Bzl)-D-Nal 2′-Arg-Nal 2′-Cys-NH2 | 70% | 95% | 22% | 100%
Ac-Nle-Ala-Glu-D-Phe-Arg-Cys-Trp-NH2 (Ac-[Nle]AE[dF]RCW-NH2; not fully specified; printed as Ac-Nle-Ala-Glu-D-Phe-Arg-Cys-Trp-NH2) | 3% | 12% | 0% | 0%
Ac-[Nle]AY[dF]RCW-NH2 | 0% | 0% | 66% | 44%
Allo-Thr-D-Phe-Arg-Trp-Cys-NH2 | 0% | 22% | 28% | 2%
[dDip][dF]RCW-NH2 | 8% | 2% | 58% | 53%
Ac-Ala-Ala-His-D-Phe-Arg-Cys-Trp-NH2 ({Ac-Ala-Ala-H2N}-[dF]RCW-NH2; not fully specified; printed as Ac-Ala-Ala-His-D-Phe-Arg-Cys-Trp-NH2) | 0% | 4% | 76% | 17%
Tic-D-Phe-Arg-Trp-Cys-NH2 ([Tic][dF]RWC-NH2; also: metal complex) | 25% | 64% | 14% | 69%
7-amino-Heptanoyl-D-Igl-D-Phe-Arg-Trp-Cys-NH2 ([Ahp][dIgl][dF]RWC-NH2; not fully specified; printed as 7-amino-Heptanoyl-D-Igl-D-Phe-Arg-Trp-Cys-NH2) | 0% | 5% | 47% | 35%
